What was measured:
rat [1] = details: Prenatal developmental toxicity study, Oral, Gavage/Intubation, dose end: 18 GD
rat [2] = details: Subchronic oral toxicity in rodents, Gavage/Intubation, dose end: 64 day, group: systemic, systemic / in life observation / body weight / body weight + systemic / in life observation / clinical signs / motor activity + systemic / …
rat [3] = details: Sub-acute repeat dose toxicity, sprague dawley, Oral, Gavage/Intubation, dose end: 22 day, group: systemic
dog = details: Sub-acute repeat dose toxicity; beagle; Inhalation; Whole-Body; dose end: 14 day; group: systemic; systemic / in life observation / food consumption / food consumption + systemic / pathology microscopic / nose / [other] + systemic / …
rat [4] = details: Sub-acute repeat dose toxicity; Inhalation; Whole-Body; dose end: 14 day; group: systemic; systemic / hematology / blood clotting / blood clotting - activated partial thromboplastin time + systemic / in life observation / body …
rat [5] = details: Fertility (Segment I), sprague dawley, Oral, Gavage/Intubation, dose end: 1 generation, group: parental
rat [6] = details: Subchronic oral toxicity in rodents, sprague dawley, Gavage/Intubation, dose end: 42 day, group: systemic
rat [7] = details: Prenatal developmental toxicity study, sprague dawley, Oral, Gavage/Intubation, dose end: 18 GD
rat [8] = details: Sub-acute repeat dose toxicity, sprague dawley, Oral, Gavage/Intubation, dose end: 12 day, group: systemic
primate [9] = details: Sub-acute repeat dose toxicity; Oral; Gavage/Intubation; dose end: 5 day; group: systemic; systemic / in life observation / clinical signs / emesis + systemic / in life observation / food consumption / food consumption
rabbit [10] = details: Prenatal developmental toxicity study; new zealand white; Oral; Gavage/Intubation; dose end: 19 GD; group: maternal; systemic / in life observation / body weight / body weight gain + systemic / in life observation / clinical signs / reduced activity + …
rabbit [11] = details: Sub-acute repeat dose toxicity, new zealand white, Oral, Gavage/Intubation, dose end: 13 day
primate [12] = details: Subchronic oral toxicity in nonrodent, Gavage/Intubation, dose end: 48 day, group: systemic
primate [13] = details: Sub-acute repeat dose toxicity, Oral, Gavage/Intubation, dose end: 9 day, group: systemic
rabbit [14] = details: Sub-acute repeat dose toxicity, Oral, Gavage/Intubation, dose end: 5 day, group: systemic
primate [15] = details: Subchronic oral toxicity in nonrodent, Gavage/Intubation, dose end: 42 day, group: systemic, systemic / in life observation / body weight / body weight + systemic / in life observation / clinical signs / emesis + systemic / in life …
rat [16] = details: Sub-acute repeat dose toxicity, sprague dawley, Oral, Gavage/Intubation, dose end: 14 day, group: systemic
rat [17] = details: Fertility (Segment I), sprague dawley, Oral, Gavage/Intubation, dose end: 1 generation, group: parental; remark: listed apart in the source
rabbit [18] = details: Prenatal developmental toxicity study, himalayan, Oral, Gavage/Intubation, dose end: 18 GD, group: maternal
rat [19] = details: Prenatal developmental toxicity study, sprague dawley, Oral, Gavage/Intubation, dose end: 17 GD
rat [20] = details: Sub-acute repeat dose toxicity, sprague dawley, Oral, Gavage/Intubation, dose end: 4 week, group: systemic
mouse = details: Carcinogenicity, Oral, Feed, dose end: 720 day, group: systemic
rat [21] = details: Sub-acute repeat dose toxicity, sprague dawley, Oral, Gavage/Intubation, dose end: 36 day, group: systemic
rat [22] = details: Fertility (Segment I); sprague dawley; Oral; Gavage/Intubation; dose end: 1 generation; group: parental; systemic / in life observation / body weight / body weight gain
[23] = group: developmental, developmental / developmental malformation / bone / fused + developmental / developmental malformation / bone / delayed ossification + …
[24] = group: maternal, systemic / in life observation / body weight / body weight + systemic / in life observation / body weight / body weight gain + systemic / in…
[25] = group: maternal, systemic / in life observation / body weight / body weight gain + systemic / in life observation / food consumption / food consumption
[26] = systemic / in life observation / body weight / body weight + systemic / in life observation / body weight / body weight gain + systemic / in…
[27] = systemic / in life observation / body weight / body weight gain
[28] = systemic / in life observation / body weight / body weight + systemic / in life observation / clinical signs / altered breathing rate + …
[29] = systemic / hematology / erythrocyte (rbc) count differential / erythrocyte (rbc) + systemic / hematology / hemoglobin (hgb) / hemoglobin (…
[30] = group: developmental, developmental / developmental malformation / eye / anophthalmia + developmental / developmental malformation / eye / microphthalmia + …
[31] = systemic / in life observation / body weight / body weight gain + systemic / in life observation / clinical signs / respiration (rales) + …
[32] = systemic / in life observation / body weight / body weight gain + systemic / in life observation / clinical signs / salivation + systemic / …
[33] = group: maternal, reproductive / offspring survival early / litter viability other / litter viability
[34] = group: systemic, systemic / in life observation / body weight / body weight + systemic / in life observation / clinical signs / inappetence
[35] = group: systemic, systemic / in life observation / body weight / body weight + systemic / in life observation / clinical signs / inappetence + systemic / in …
[36] = systemic / in life observation / clinical signs / emesis + systemic / pathology microscopic / peritoneum / atrophy
[37] = systemic / in life observation / clinical signs / emesis + systemic / pathology microscopic / peritoneum / atrophy + systemic / in life …
[38] = systemic / hematology / lymphocyte / lymphocyte
[39] = systemic / in life observation / clinical signs / emesis + systemic / in life observation / clinical signs / salivation + systemic / …
[40] = systemic / in life observation / clinical signs / abnormal feces
[41] = systemic / in life observation / food consumption / food consumption
[42] = systemic / in life observation / food consumption / food consumption + systemic / pathology gross / intestine large / dilatation + systemic…
[43] = systemic / in life observation / clinical signs / abnormal respiratory sounds + systemic / in life observation / clinical signs / drooping …
[44] = systemic / in life observation / body weight / body weight gain + systemic / in life observation / food consumption / food consumption
[45] = group: developmental, developmental / developmental malformation / general / crown-rump length + systemic / in life observation / body weight / fetal weight
[46] = group: maternal, reproductive / reproductive performance / resorptions / resorptions + systemic / in life observation / body weight / body weight + systemic…
[47] = systemic / hematology / mean corpuscular (cell) volume (mcv) / mean corpuscular (cell) volume (mcv) + systemic / pathology microscopic / …
[48] = systemic / hematology / [other] / [other] + systemic / in life observation / body weight / body weight gain + systemic / in life observation…
[49] = systemic / in life observation / mortality / mortality
[50] = systemic / in life observation / body weight / body weight gain + systemic / in life observation / water consumption / water consumption
[51] = systemic / in life observation / water consumption / water consumption

## FC(F)(F)c1ccc2c(c1)[C@H]1CNC[C@@H]2C1
Rat [1]; group: developmental, developmental / developmental malformation / bone / delayed ossification + developmental / developmental malformation / bone / fused + …
  LEL: 3 mg/kg/day
Rat [1]; [23]
  LOAEL: > 7 mg/kg/day
  NOAEL: ≥ 7 mg/kg/day
Rat [1]; [24]
  LOAEL: > 7 mg/kg/day
  NOAEL: ≥ 7 mg/kg/day
Rat [1]; [25]
  LEL: 1 mg/kg/day
  NEL: < 1 mg/kg/day
Rat [2]
  LEL: 3 mg/kg/day
  LOAEL: > 3 mg/kg/day
  NEL: 1 mg/kg/day
  NOAEL: ≥ 3 mg/kg/day
Rat [3]; [26]
  LOAEL: > 7 mg/kg/day
  NOAEL: ≥ 7 mg/kg/day
Rat [3]; [27]
  LEL: 1 mg/kg/day
  NEL: < 1 mg/kg/day

## CN(C[C@@H](CC[N+]12CCC(C3CCCCC3)(CC1)CC2)c1ccc(Cl)c(Cl)c1)C(=O)c1cc(C(F)(F)F)cc(C(F)(F)F)c1.CS(=O)(=O)[O-]
dog
  LEL: 2 mg/kg/day
  LOAEL: > 2 mg/kg/day
  NEL: < 2 mg/kg/day
  NOAEL: ≥ 2 mg/kg/day
Rat [4]
  LEL: 2 mg/kg/day
  LOAEL: > 2 mg/kg/day
  NEL: < 2 mg/kg/day
  NOAEL: ≥ 2 mg/kg/day

## C[C@@H](Oc1ccc(CNC(=O)c2cccnc2Oc2ccc3c(c2)OCO3)c(F)c1)C(=O)O
Rat [5]; [28]
  LOAEL: > 1000 mg/kg/day
  NEL: 50 mg/kg/day
  NOAEL: ≥ 1000 mg/kg/day
Rat [5]; systemic / in life observation / body weight / body weight + systemic / in life observation / clinical signs / drooping eyelids (ptosis) + …
  LEL: 400 mg/kg/day
Rat [6]; [29]
  LOAEL: > 2000 mg/kg/day
  NOAEL: ≥ 2000 mg/kg/day
Rat [6]; systemic / hematology / neutrophils / neutrophils + systemic / in life observation / body weight / body weight + systemic / in life …
  NEL: 10 mg/kg/day
Rat [6]; systemic / pathology microscopic / mesentery / infiltration cellular
  LEL: 50 mg/kg/day
Rat [7]; [30]
  LEL: 400 mg/kg/day
  LOAEL: > 1000 mg/kg/day
  NOAEL: ≥ 1000 mg/kg/day
Rat [7]; [24]
  LOAEL: > 1000 mg/kg/day
  NEL: 120 mg/kg/day
  NOAEL: ≥ 1000 mg/kg/day
Rat [7]; group: maternal, systemic / in life observation / clinical signs / salivation + systemic / in life observation / food consumption / food consumption + …
  LEL: 400 mg/kg/day
Rat [8]; [31]
  LOAEL: > 1000 mg/kg/day
  NOAEL: ≥ 1000 mg/kg/day
Rat [8]; [32]
  LEL: 400 mg/kg/day
  NEL: < 400 mg/kg/day
Primate [9]
  LEL: 30 mg/kg/day
  LOAEL: > 30 mg/kg/day
  NEL: < 30 mg/kg/day
  NOAEL: ≥ 30 mg/kg/day
Rabbit [10]
  LEL: 200 mg/kg/day
  LOAEL: > 200 mg/kg/day
  NEL: 60 mg/kg/day
  NOAEL: ≥ 200 mg/kg/day
Rabbit [11]; [33]
  LEL: 600 mg/kg/day
  LOAEL: > 600 mg/kg/day
  NEL: 400 mg/kg/day
  NOAEL: ≥ 600 mg/kg/day
Rabbit [11]; [34]
  LEL: 120 mg/kg/day
  NEL: < 120 mg/kg/day
Rabbit [11]; [35]
  LOAEL: > 600 mg/kg/day
  NOAEL: ≥ 600 mg/kg/day
Primate [12]; [36]
  LEL: 5 mg/kg/day
  NEL: < 5 mg/kg/day
Primate [12]; [37]
  LOAEL: > 30 mg/kg/day
  NOAEL: ≥ 30 mg/kg/day
Primate [13]; [38]
  LEL: 100 mg/kg/day
  NEL: < 100 mg/kg/day
Primate [13]; [39]
  LOAEL: > 1000 mg/kg/day
  NOAEL: ≥ 1000 mg/kg/day
Rabbit [14]; [26]
  LOAEL: > 750 mg/kg/day
  NOAEL: ≥ 750 mg/kg/day
Rabbit [14]; [40]
  LEL: 120 mg/kg/day
  NEL: < 120 mg/kg/day
Primate [15]
  LEL: 200 mg/kg/day
  LOAEL: > 1000 mg/kg/day
  NEL: 30 mg/kg/day
  NOAEL: ≥ 1000 mg/kg/day
Rat [16]; [41]
  LEL: 120 mg/kg/day
Rat [16]; systemic / in life observation / food consumption / food consumption + systemic / pathology gross / intestine large / dilatation
  NEL: 30 mg/kg/day
Rat [16]; [42]
  LOAEL: > 750 mg/kg/day
  NOAEL: ≥ 750 mg/kg/day
Rat [17]; [43]
  LOAEL: > 1000 mg/kg/day
  NEL: 50 mg/kg/day
  NOAEL: ≥ 1000 mg/kg/day
Rat [17]; systemic / in life observation / clinical signs / reduced activity + systemic / in life observation / clinical signs / salivation
  LEL: 400 mg/kg/day

## CCN(CC)C(=O)c1cc(S(=O)(=O)Cc2ccccc2)c(N2CCC(c3ccccc3)CC2)cc1N(CC)CCN(C)C [HMR1171]
Rabbit [18]; [44]
  LOAEL: > 240 mg/kg/day
  NEL: 60 mg/kg/day
  NOAEL: ≥ 240 mg/kg/day
Rabbit [18]; [41]
  LEL: 120 mg/kg/day
Rat [19]; [45]
  LEL: 60 mg/kg/day
  LOAEL: 60 mg/kg/day
  NEL: 10 mg/kg/day
  NOAEL: 10 mg/kg/day
Rat [19]; [46]
  LEL: 60 mg/kg/day
  LOAEL: 60 mg/kg/day
  NEL: 10 mg/kg/day
  NOAEL: 10 mg/kg/day
Rat [20]; systemic / clinical chemistry / alkaline phosphatase (alp/alk) / alkaline phosphatase (alp/alk) + systemic / clinical chemistry / …
  NEL: 5 mg/kg/day
Rat [20]; [47]
  LEL: 20 mg/kg/day
  LOAEL: 20 mg/kg/day
  NOAEL: 5 mg/kg/day

## CS(=O)(=O)N[C@@H](CCCCN)C(=O)NC[C@H](CC1(C(=O)N[C@@H](Cc2ccc(O)cc2)C(=O)O)CCCC1)C(=O)O [Sampatrilat]
mouse; [48]
  LOAEL: > 600 mg/kg/day
  NOAEL: ≥ 600 mg/kg/day
mouse; [49]
  LEL: 40 mg/kg/day
  NEL: < 40 mg/kg/day
Rat [21]; [50]
  LOAEL: > 300 mg/kg/day
  NOAEL: ≥ 300 mg/kg/day
Rat [21]; [51]
  LEL: 30 mg/kg/day
  NEL: < 30 mg/kg/day
Rat [22]
  LEL: 200 mg/kg/day
  LOAEL: > 1000 mg/kg/day
  NEL: 50 mg/kg/day
  NOAEL: ≥ 1000 mg/kg/day

— EPA's ToxRefDB 2
